Measurements: patent publication US20100317046A1, “Non-Endogenous, Constitutively Activated Versions of Human G Protein Coupled Receptor: FSHR” (priority 2002, published 2010)
Numbering of substitutions follows the chain as printed.

Legend:
endogenous FSHR ("WT") = target: T1, endogenous FSHR ("WT") (Homo sapiens, UniProt P23945, E197A/L198V/N112T); test: Alpha Screen cAMP accumulation, endogenous FSHR (WT); format: cell-based; conditions: 293 cells expressing WT FSHR, FIG. 3
T1 construct: The 2.1 kb PCR fragment was then cloned into EcoRV-EcoRI site of CMVp expression vector; expressed in transfected cells
T1 sequence (P23945 18-695 N112T/E197A/L198V): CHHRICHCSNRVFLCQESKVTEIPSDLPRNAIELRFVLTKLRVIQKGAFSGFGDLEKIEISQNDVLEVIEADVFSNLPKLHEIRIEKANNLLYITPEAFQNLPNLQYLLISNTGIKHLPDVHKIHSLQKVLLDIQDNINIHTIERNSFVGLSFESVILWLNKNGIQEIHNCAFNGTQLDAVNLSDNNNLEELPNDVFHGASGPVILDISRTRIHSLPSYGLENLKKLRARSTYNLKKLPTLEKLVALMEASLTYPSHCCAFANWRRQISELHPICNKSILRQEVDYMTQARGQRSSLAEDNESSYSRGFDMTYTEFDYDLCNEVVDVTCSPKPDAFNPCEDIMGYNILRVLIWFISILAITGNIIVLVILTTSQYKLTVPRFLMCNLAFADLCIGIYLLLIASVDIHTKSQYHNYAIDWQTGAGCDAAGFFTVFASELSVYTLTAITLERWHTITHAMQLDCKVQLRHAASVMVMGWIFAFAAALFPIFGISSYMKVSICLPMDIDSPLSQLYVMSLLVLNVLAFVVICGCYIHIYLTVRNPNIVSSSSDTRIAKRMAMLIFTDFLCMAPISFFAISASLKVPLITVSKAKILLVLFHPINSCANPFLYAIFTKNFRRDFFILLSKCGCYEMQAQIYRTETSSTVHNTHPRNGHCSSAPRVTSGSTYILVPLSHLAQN
Protocol: (§1) Approximately 12×10^6 293 cells are plated on a 15 cm tissue culture plate. Grown in DME High Glucose Medium containing ten percent fetal bovine serum and one percent sodium pyruvate, L-glutamine, and anti-biotics. Twenty-four hours following plating of 293 cells (or to ˜80% confluency), the cells are transfected using 12 μg of DNA. The 12 μg of DNA is combined with 60 μl of lipofectamine and 2 mL of DME High Glucose Medium without serum. The medium is aspirated from the plates and the cells are washed once with medium without serum. The DNA, lipofectamine, and medium mixture are added to the plate along with 10 mL of medium without serum. Following incubation at 37 degrees Celsius for four to five hours, the medium is aspirated and 25 ml of medium containing serum is added. Twenty-four hours following transfection, the medium is aspirated again, and fresh medium with serum is added. Forty-eight hours following transfection, the medium is aspirated and medium with serum is added containing geneticin (G418 drug) at a final concentration of 500 μg/mL. The transfected cells will undergo selection for positively transfected cells containing the G418 resistant gene. […]
(§2) The media from Example 3(b) above was aspirated and rinsed 1× with PBS (5-10 ml/flask). […] Following incubation, the wells were read on Alpha Quest and measured for light units. […]

[1] = target: T2, non-endogenous FSHR ("L460R") (Homo sapiens, UniProt P23945, E197A/L198V/L460R/N112T); test: Alpha Screen cAMP accumulation, non-endogenous constitutively activated FSHR (L460R); format: cell-based; conditions: L460R versus WT, FIG. 3
T2 construct: expressed in transfected cells
T2 sequence (P23945 18-695 N112T/E197A/L198V/L460R): T1 sequence (P23945 18-695 N112T/E197A/L198V) with L443R
Protocol: as §1, §2

CCCCCc1ccc(C(=O)N2CCCCC2C(=O)Nc2ccc3c(c2)c2ccccc2n3CC)c(=O)o1 (centres unmarked) [Compound A, 1-[(2-oxo-6-pentyl-2H-pyran)-3-carbonyl]-piperidine-2-carboxylic acid-3-(9-ethylcarbazolyl) amide]
EC50 (endogenous FSHR ("WT")): ~3 nM | efficacy for L460R version of FSHR compared with the WT receptor [1]: better efficacy
